{"source": "paper PMC10982093", "about": "“Identifying and characterising promising small molecule inhibitors of kinesin spindle protein using ligand-based virtual screening, molecular docking, molecular dynamics and MM‑GBSA calculations” (Journal of Computer-Aided Molecular Design, 2024)", "key": {"[1]": {"test_system": "Hela cells", "experiment": "Immunofluorescence assay, inhibition of mitotic spindle formation", "format": "cell-based", "conditions": "10 µM, 24 h, tubulin immunofluorescence", "procedure": "[…] Monastrol was used as a positive control, while 0.1% DMSO was used as a negative control. The cells were rinsed with PBS, fixed with 3.7% paraformaldehyde, and permeabilized with 0.1% Triton X-100. The cells were blocked with 1% BSA in PBS for 1 h prior to incubation with anti-β-tubulin mouse monoclonal antibody (#86,298, Cell Signaling, San Francisco, CA, USA) overnight at 4 °C. The cells were washed with PBS for 1 h in the dark, and then incubated with Alexa Fluor® 488 secondary antibodies (Abcam).\nFurther investigation of compound 5 was performed, which consisted of an immunofluorescence assay that was used to analyse the mechanism of compound 5 on the organisation of the microtubules into mitotic spindles during divisions of the cells."}, "[2]": {"target": "T1, Eg5 ATPase (Homo sapiens, UniProt P52732)", "T1 construct": "purchased Cytoskeleton, Inc BK060", "T1 sequence (P52732 1-1056)": "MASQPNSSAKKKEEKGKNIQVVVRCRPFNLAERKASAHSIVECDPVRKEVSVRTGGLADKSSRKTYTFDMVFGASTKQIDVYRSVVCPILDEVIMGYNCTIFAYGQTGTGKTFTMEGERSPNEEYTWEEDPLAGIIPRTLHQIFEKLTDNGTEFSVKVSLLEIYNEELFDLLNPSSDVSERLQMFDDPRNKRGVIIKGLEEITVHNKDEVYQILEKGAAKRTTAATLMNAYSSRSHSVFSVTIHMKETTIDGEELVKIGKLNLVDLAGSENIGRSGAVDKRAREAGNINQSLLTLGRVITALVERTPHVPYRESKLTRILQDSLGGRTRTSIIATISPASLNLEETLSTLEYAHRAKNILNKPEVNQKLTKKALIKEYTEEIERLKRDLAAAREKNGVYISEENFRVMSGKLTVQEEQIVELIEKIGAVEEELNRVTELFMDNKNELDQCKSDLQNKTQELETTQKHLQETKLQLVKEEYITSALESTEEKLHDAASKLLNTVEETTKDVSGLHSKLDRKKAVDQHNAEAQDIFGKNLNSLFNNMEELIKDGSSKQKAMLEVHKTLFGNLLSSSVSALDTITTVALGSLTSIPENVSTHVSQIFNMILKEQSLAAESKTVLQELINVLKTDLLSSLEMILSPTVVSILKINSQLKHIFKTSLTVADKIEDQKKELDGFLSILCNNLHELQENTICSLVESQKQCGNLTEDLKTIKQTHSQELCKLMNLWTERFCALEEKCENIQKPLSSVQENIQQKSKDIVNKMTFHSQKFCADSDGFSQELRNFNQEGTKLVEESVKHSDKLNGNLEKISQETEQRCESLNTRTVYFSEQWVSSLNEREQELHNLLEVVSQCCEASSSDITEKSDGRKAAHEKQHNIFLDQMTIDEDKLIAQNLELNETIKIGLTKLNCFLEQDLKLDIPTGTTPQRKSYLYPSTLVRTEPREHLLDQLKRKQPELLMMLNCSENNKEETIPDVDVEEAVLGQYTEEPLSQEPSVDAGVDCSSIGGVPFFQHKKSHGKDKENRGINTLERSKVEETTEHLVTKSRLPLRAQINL", "experiment": "Microtubule-activated Eg5 ATPase inhibition assay (Kinesin ELISA kit BK060)", "format": "biochemical", "conditions": "for inhibition at 10 µM: mean of 3 replicates", "procedure": "Microtubule (MT)-activated enzymatic Eg5-ATPase activity were measured in order to evaluate the inhibitory activity of the selected compounds at […]. The MT—ATPase activity was analysed using Kinesin ELISA kit (BK060) (Cytoskeleton, Inc) and Monastrol was used as a control. The procedures were applied according to the manufacturer’s instructions. The IC50 of compound 5 which were required for inhibiting 50% of Eg5 ATPase activity was measured using ELISA kit (BK060) (Cytoskeleton, Inc, Denver, CO) according to the manufacturer’s instructions.\nThe Eg5 ATPase activity of the six hits at 10 µM was investigated in comparison to Monastrol (10 µM), as it acted as a positive control compound. […] Similarly compounds 1, 3 and 4 caused 40, 35 and 30% inhibition activity respectively."}, "[3]": {"target": "Eg5 protein", "set-up": "method as in PMID 35251692", "conditions": "read-out: Ki against Eg5 protein; cited from earlier work"}}}
{"smiles": "CCOC(=O)C1=C(C)NC(=S)NC1c1cccc(O)c1", "note": "(stereo not drawn) [Monastrol, reference compound]", "values": [{"measurement": "Mitotic spindle morphology", "setting": "[1]", "value": "monopolar spindle profiles"}, {"measurement": "inhibition at 10 µM", "setting": "[2]", "value": 60, "unit": "%"}]}
{"smiles": "COc1cc2nc(-c3cc(-c4ccccc4Cl)nc4ccccc34)[nH]c2cc1OC", "note": "[Compound 3, 2-(2-chlorophenyl)-4-(5,6-dimethoxy-1H-benzo[d]imidazol-2-yl)quinoline]", "values": [{"measurement": "inhibition at 10 µM", "setting": "[2]", "value": 35, "unit": "%"}]}
{"smiles": "Cn1c(=O)[nH]c(=O)c2c1nc(NCCCn1ccnc1)n2Cc1ccc2ccccc2c1", "note": "[Compound 5, 8-(3-(1H-imidazol-1-yl)propylamino)-3-methyl-7-((naphthalen-3-yl)methyl)-1H-purine-2,6(3H,7H)-dione]", "values": [{"measurement": "Mitotic spindle morphology", "setting": "[1]", "value": "monopolar spindle profiles"}, {"measurement": "inhibition at 10 µM", "setting": "[2]", "value": 50, "unit": "%"}, {"measurement": "IC50", "setting": "[2]; read-out: IC50 against Eg5 ATPase", "value": "2370 ± 150", "unit": "nM"}]}
{"smiles": "NC(=O)Nc1ccc(-c2ccc(C(F)(F)F)cc2)cc1F", "note": "[GSK-2]", "values": [{"measurement": "Ki", "setting": "[3]", "value": 8.8, "unit": "nM"}]}
{"smiles": "O=C1CCc2cc(-c3ccc(C(F)(F)F)cc3)ccc2N1", "note": "[GSK-1]", "values": [{"measurement": "Ki", "setting": "[3]", "value": 1.8, "unit": "nM"}]}
{"smiles": "COc1ccc(CNc2nc3cc(C(=O)O)ccc3n2Cc2ccccc2C(F)(F)F)cc1", "note": "[Compound 1, 1-(2-(trifluoromethyl)benzyl)-2-(4-methoxybenzylamino)-1H-benzo[d]imidazole-5-carboxylic acid]", "values": [{"measurement": "inhibition at 10 µM", "setting": "[2]", "value": 40, "unit": "%"}]}
{"smiles": "Cc1ccc(O)c(C(=O)c2cnc3c(c2)c(-c2ccc(F)cc2)c(C#N)c(=O)n3C)c1", "note": "[Compound 4, 4-(4-fluorophenyl)-6-(2-hydroxy-5-methylbenzoyl)-1-methyl-2-oxo-1,8-naphthyridine-3-carbonitrile]", "values": [{"measurement": "inhibition at 10 µM", "setting": "[2]", "value": 30, "unit": "%"}]}
{"smiles": "COc1ccc(C(=O)N2c3ccc(OC(=O)c4ccco4)cc3C(C)=CC2(C)C)cc1", "note": "[Compound 2, 1-(4-methoxybenzoyl)-2,2,4-trimethyl-1,2-dihydroquinolin-6-yl furan-2-carboxylate]", "values": [{"measurement": "inhibition at 10 µM", "setting": "[2]", "value": "~25", "unit": "%"}]}
{"smiles": "CS(=O)(=O)c1ccc(CNc2nc3cc(C(=O)O)ccc3n2Cc2ccccc2C(F)(F)F)cc1", "note": "[Compound 6, 1-(2-(trifluoromethyl)benzyl)-2-(4-(methylsulfonyl)benzylamino)-1H-benzo[d]imidazole-5-carboxylic acid]", "values": [{"measurement": "inhibition at 10 µM", "setting": "[2]", "value": "~25", "unit": "%"}]}
